These are literature values, as cited in patent US20110124713A1, “SAM-II RIBOSWITCH AND USES THEREOF” (The Regents of the University of Colorado, A body Corporate, priority 2007, published 2011).

Structures are written as SMILES.

This series concerns SAM-II riboswitch. Particulars: absence vs presence of SAM; nucleotides G8-U12 in L1.

With `C[S+](CC[C@H](N)C(=O)O)C[C@H]1O[C@@H](n2cnc3c(N)ncnc32)[C@H](O)[C@@H]1O` (stereo partly shown) [SAM, S-adenosylmethionine], the “ligand-dependent protections in in-line probing” value was “strong ligand-dependent protections”.
